Results: paper PMC2861356 (Clinical cancer research : an official journal of the …, 2009)
Where two headings read alike, the source gives them in different places. Each block holds one molecule with its values, some of them ahead of it.

How the values were obtained:
clinical [1] = settings: human, plasma, oral; for Cmax: Imatinib Cmax, mean ± SD; for Tmax: Imatinib tmax, median (range)
[2] = tested on: surgically incurable GIST; settings: cited from earlier work
GIST = GIST after imatinib; cited from earlier work
[3] = tested on: imatinib-resistant gastrointestinal stromal tumors (GIST); assay: Tumor response; type: in vivo, human
[4] = tested on: patients with advanced imatinib-resistant gastrointestinal stromal tumors (GIST)
[5] = Nilotinib serum pharmacokinetics at steady-state
clinical [6] = settings: human, serum, oral
[7] = Cohort 2 (n=6), imatinib 400 mg bid with nilotinib 200 mg qd, Day 8
[8] = 400 mg, Cohort 3 (n=7), imatinib 400 mg bid alone, Day -1
[9] = 400 mg, Cohort 3 (n=7), imatinib 400 mg bid with nilotinib 400 mg qd, Day 8

Imatinib Cavg, mean ± SD (Cohort 2 (n=6), imatinib 400 mg bid alone, Day -1): 2381 ± 1181 ng/mL
Imatinib Cavg, mean ± SD [7]: 2768 ± 1039 ng/mL
Imatinib Cavg, mean ± SD (Cohort 3 (n=7), imatinib 400 mg bid alone, Day -1): 3594 ± 2195 ng/mL
Imatinib Cavg, mean ± SD (Cohort 3 (n=7), imatinib 400 mg bid with nilotinib 400 mg qd, Day 8): 3735 ± 1212 ng/mL
Imatinib Cavg, mean ± SD (Cohort 4 (n=5), imatinib 400 mg bid alone, Day -1): 3556 ± 1523 ng/mL
Imatinib Cavg, mean ± SD (Cohort 4 (n=5), imatinib 400 mg bid with nilotinib 400 mg bid, Day 8): 4285 ± 2325 ng/mL
Cmax (clinical [1]; 400 mg, Cohort 2 (n=6), imatinib 400 mg bid alone, Day -1): 2770 ± 1140 ng/mL
Cmax (clinical [1]; [8]): 4020 ± 2170 ng/mL
Cmax (clinical [1]; [9]): 4200 ± 1120 ng/mL
Cmax (clinical [1]; 400 mg, Cohort 4 (n=5), imatinib 400 mg bid alone, Day -1): 4170 ± 1760 ng/mL
Cmax (clinical [1]; 400 mg, Cohort 4 (n=5), imatinib 400 mg bid with nilotinib 400 mg bid, Day 8): 5070 ± 2760 ng/mL
Tmax (clinical [1]; [8]): 4.8 h
Tmax (clinical [1]; [9]): 2.4 h
Cmax (clinical [1]; [7]): 3370 ± 1120 ng/mL
Tmax (clinical [1]; [7]): 2.9 h
SMILES: Cc1ccc(NC(=O)c2ccc(CN3CCN(C)CC3)cc2)cc1Nc1nccc(-c2cccnc2)n1 [Imatinib]
Patients with primary resistance within the first 6 months of therapy ([2]; estimated): 5-14%
Median time of therapy until secondary resistance ([2]; most patients): 2 years
Median survival ([2]; surgically incurable GIST): ~5 years
Tumor control rates ([2]; surgically incurable GIST): > 80%

SMILES: CCN(CC)CCNC(=O)c1c(C)[nH]c(/C=C2\C(=O)Nc3ccc(F)cc32)c1C [Sunitinib]
Duration of benefit of second-line therapy (GIST): approximately 9 months

SMILES: Cc1cn(-c2cc(NC(=O)c3ccc(C)c(Nc4nccc(-c5cccnc5)n4)c3)cc(C(F)(F)F)c2)cn1 [Nilotinib]
Best overall response: Complete response ([3]; Nilotinib 400 mg bid n=18): 0 n (%)
Best overall response: Partial response ([3]; Nilotinib 400 mg bid n=18): 1 (6) n (%)
Best overall response: Progressive disease ([3]; Nilotinib 400 mg bid n=18): 2 (11) n (%)
Best overall response: Stable disease ([3]; Nilotinib 400 mg bid n=18): 13 (72) n (%)
Best overall response: Unknown (could not be classified) ([3]; Nilotinib 400 mg bid n=18): 1 (6) n (%)
Progression-free survival, Kaplan-Meier rate at 4 months ([3]; Nilotinib 400 mg bid n=18): 59%
Progression-free survival, Kaplan-Meier rate at 6 months ([3]; Nilotinib 400 mg bid n=18): 47%
Progression-free survival, median ([3]; Nilotinib 400 mg bid n=18): 168 days
Progression-free survival, range ([3]; Nilotinib 400 mg bid n=18): 1 to 393 days
Patients with stable disease ([3]; all cohorts): Thirty-eight
Discontinuation of study for disease progression ([3]; all cohorts, n=32): 60%
Progression-free survival, range ([3]; all patients): 1 to 393 days
Median progression-free survival ([3]; entire group, all patients): 134 days
Stable disease lasting >6 months ([3]; single-agent nilotinib group, 5 patients): 28%
Stable disease lasting >4 months ([3]; single-agent nilotinib group, 9 patients): 50%
Discontinuation of study for death ([4]; all cohorts, n=2): 4%
Abdominal pain, overall frequency of AE ([4]; human, in vivo): 36%
Discontinuation of study for AEs ([4]; human, in vivo): 6%
Fatigue, overall frequency of AE ([4]; human, in vivo): 38%
Grade 3 elevations of AST or ALT ([4]; human, in vivo): < 2%
Grade 3 or 4 laboratory abnormality: hyperbilirubinemia ([4]; human, in vivo): 8%
Grade 3 or 4 toxicities, patients overall ([4]; human, in vivo): 49%
Nausea, overall frequency of AE ([4]; human, in vivo): 36%
Post-baseline QTcF interval >480 msec ([4]; human, in vivo): 13%
QTcF >500 msec ([4]; human, in vivo): no QTcF >500 msec was reported
Rash, overall frequency of AE ([4]; human, in vivo): 40%
Severe AEs (grade 3 or 4): abdominal pain ([4]; human, in vivo): 13%
Dose deemed appropriate for Phase II studies ([4]; human, in vivo, 28 days): 400 mg bid
Dose-limiting toxicity: grade 3 hyperbilirubinemia, frequency ([4]; human, in vivo, 28 days): 6%
Thrombocytopenia episodes ([4]; in vivo): no episodes of thrombocytopenia
Slope of Cavg versus total nilotinib daily dose (power model) ([5]; combination cohorts): 0.946
Slope of Cmax versus total nilotinib daily dose (power model) ([5]; combination cohorts): 0.881
Nilotinib AUC0-t higher than in single-agent cohort ([5]; nilotinib 400 mg bid combination cohorts, second value): 18%
Nilotinib oral clearance, mean CL/F across the combination groups ([5]; nilotinib with imatinib, 4 combination cohorts): 19.1 to 25.6 L/h
AUC(0-t) (clinical [6]): 13600 ± 6620 ng·h/mL
Cmax (clinical [6]; 400 mg bid): 1640 ± 828 ng/mL
Tmax (clinical [6]; 400 mg bid): 2.8 h
